The values below come from patent US20120316346A1, “SELENALZOLE DERIVATIVE HAVING LIGAND WHICH ACTIVATES PEROXISOME PROLIFERATOR ACTIVATED RECEPTOR (PPAR), PREPARING METHOD THEREOF AND USAGE OF THE CHEMICAL COMPOUNDS” (SNU R & DB FOUNDATION, priority 2010, published 2012).

Data set [1] addresses T1, hPPARδ (Homo sapiens, UniProt Q03181).
T1 sequence (Q03181 1-441): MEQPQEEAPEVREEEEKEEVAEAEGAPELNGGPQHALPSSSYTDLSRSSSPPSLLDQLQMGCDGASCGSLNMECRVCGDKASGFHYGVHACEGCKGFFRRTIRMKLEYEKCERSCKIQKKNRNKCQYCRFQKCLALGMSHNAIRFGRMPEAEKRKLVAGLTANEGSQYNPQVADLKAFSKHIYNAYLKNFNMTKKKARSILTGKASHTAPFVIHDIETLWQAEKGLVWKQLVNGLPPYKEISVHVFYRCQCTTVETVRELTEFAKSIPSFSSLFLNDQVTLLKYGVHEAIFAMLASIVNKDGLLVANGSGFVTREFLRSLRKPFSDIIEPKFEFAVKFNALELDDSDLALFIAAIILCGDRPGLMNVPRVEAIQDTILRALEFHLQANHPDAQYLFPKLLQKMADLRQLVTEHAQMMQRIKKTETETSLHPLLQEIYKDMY
Kind of data set: Transfection assay (luciferase reporter, full-length PPAR plasmid) in CV-1 cells, PPARδ. Format: cell-based. As to conditions: 24 hours. Here is the method:
(§1) PPARδ activation effect of the compound represented by Chemical Formula I according to the present invention was identified by transfection assay. Further, selectivity test for other PPAR subtypes PPARα and PPARγ, toxicity test by MTT assay, and in vivo activity test through animal experiment were carried out. CV-1 cells were used for transfection assay. The cells were cultured in a 5% CO2 incubator at 37° C., on a 96-well plate using DMEM medium containing 10% FBS, DBS (delipidated) and 1% penicillin/streptomycin. Experiment was performed in four stages of cell inoculation, transfection, treatment with the compound of the present invention, and confirmation of result. The CV-1 cells inoculated onto a 96-well plate at 5,000 cells/well, and transfected 24 hours later. Transfection assay was performed using full-length PPAR plasmid DNA, reporter DNA having luciferase activity and thus capable of identifying PPAR activity, and β-galactosidase DNA which gives information about transfection efficiency. […] After culturing for 24 hours in an incubator, the cells were lysed using lysis buffer, and luciferase and β-galactosidase activity was measured using a luminometer and a microplate reader. The measured luciferase data were corrected using the β-galactosidase data, and were plotted to calculate the EC50 value.

Data set [2] relates to ApoE−/− mice. Kind of data set: Atherosclerosis inhibiting effect, ApoE−/− mice (Sudan IV arterial plaque staining). Type of data set: in vivo. Conditions: ApoE−/− mouse, high-fat high-cholesterol feed, 2 mg/kg/day oral, 28 days. As for the experimental part: (§2) In order to test atherosclerosis inhibiting effect of the compound according to the present invention, in vivo experiment was carried out using atherosclerosis animal model ApoE−/−, Ldlr−/−mice. While giving high-fat, high-cholesterol feed (20% fat, 1.25% cholesterol; AIN-93G diet), the compound of the present invention (Compound S185) was orally administered at 2 mg/kg/day. 28 days later, arterial plaque was stained using Sudan IV, and the atherosclerosis inhibiting effect was compared with the control group.

The target of data set [3] is T2, hPPARα (Homo sapiens, UniProt Q07869).
T2 sequence (Q07869 1-468): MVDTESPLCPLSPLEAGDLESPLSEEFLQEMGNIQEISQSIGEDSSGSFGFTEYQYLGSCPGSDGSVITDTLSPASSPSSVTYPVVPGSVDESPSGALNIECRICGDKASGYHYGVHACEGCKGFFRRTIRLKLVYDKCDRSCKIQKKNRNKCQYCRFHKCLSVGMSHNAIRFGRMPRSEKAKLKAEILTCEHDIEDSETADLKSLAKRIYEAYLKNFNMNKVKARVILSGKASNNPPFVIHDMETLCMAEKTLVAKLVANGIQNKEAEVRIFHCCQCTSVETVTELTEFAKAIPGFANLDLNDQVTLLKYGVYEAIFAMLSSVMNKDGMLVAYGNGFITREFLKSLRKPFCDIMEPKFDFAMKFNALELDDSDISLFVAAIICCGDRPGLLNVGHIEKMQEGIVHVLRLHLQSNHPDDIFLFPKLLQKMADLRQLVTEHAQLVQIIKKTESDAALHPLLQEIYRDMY
Kind of data set: Transfection assay (luciferase reporter, full-length PPAR plasmid) in CV-1 cells, PPARα selectivity. Conditions: 24 hours. Format: cell-based. Here is the method:
as §1
In general terms: A reporter such as luciferase makes a cellular process visible.

Data set [4] can be described thus: Diabetes improving effect, glucose tolerance test (GTT). As to conditions: for Fasting glucose level as compared to the control group: 10 mg/kg/day oral for 57 days; for Diabetes improving effect: GTT, overall conclusion. Type of data set: in vivo, mouse. As for the experimental part: In order to test diabetes improving effect of the compound according to the present invention, glucose tolerance test (GTT) was carried out. To a mouse to which the test compound had been orally administered for 57 days, glucose (1.5 g/kg) was abdominally administered and change of blood glucose level was monitored.

The test system of data set [5] is mouse. Kind of data set: Muscle endurance test (treadmill) after administration during pregnancy, lactation or both. As to conditions: for Body weight or growth rate of the fetus, treated versus control group / Type I muscle fiber (ATPase staining and immunostaining): 10 mg/kg/day oral during pregnancy, lactation or both; for Increase compared to control, Distance / Increase compared to control, Time: treadmill, 10 mg/kg/day oral. Format: in vivo. Here is the method: Animal experiment was carried out in order to test muscle endurance strengthening and muscle function improving effect of the compound according to the present invention. Since muscle formation occurs mostly in the developmental stage, Compound S185 or S186 (10 mg/kg/day) was orally administered to a mouse during pregnancy, lactation or both. No difference in body weight or growth rate of the fetus was observed between the control group and the treated group. When the muscle was observed after removing the skin, the muscle of the treated group was redder than the control group. […] In order to confirm the effect of the change in the muscle fiber on improvement of muscle endurance and muscle function, test was performed using a treadmill.

Data set [6] has as its system Ldlr−/− mice. Kind of data set: Atherosclerosis inhibiting effect, Ldlr−/− mice (Sudan IV arterial plaque staining). Type of data set: in vivo. Conditions: Ldlr−/− mouse, high-fat high-cholesterol feed, 2 mg/kg/day oral, 28 days. Here is the method: as §2
The subject of data set [7] is C57BL/6 mouse. Kind of data set: Memory improving effect, Morris water maze test in LPS brain disease model. Format: in vivo. Here is the method: Animal (8-week-old C57BL/6 mouse) experiment was carried out in order to test the effect of the compound according to the present invention of treating dementia and Parkinson's disease through improvement of memory. Before performing experiment, an animal model of brain disease was established by injecting LPS into the brain by stereotaxy. Test groups were divided depending on the administration of the test compound and exercise. Exercise condition was 5 minutes at 2 m/min, 5 minutes at 5 m/min, 5 minutes at 8 m/min, followed by 5 minutes at 20 m/min. Morris water maze test was performed at the end of the test. It was confirmed that the compound according to the present invention and exercise are effective in treating dementia and Parkinson's disease through improvement of memory.

The target in data set [8] is T3, hPPARγ (Homo sapiens, UniProt P37231).
T3 sequence (P37231 1-505): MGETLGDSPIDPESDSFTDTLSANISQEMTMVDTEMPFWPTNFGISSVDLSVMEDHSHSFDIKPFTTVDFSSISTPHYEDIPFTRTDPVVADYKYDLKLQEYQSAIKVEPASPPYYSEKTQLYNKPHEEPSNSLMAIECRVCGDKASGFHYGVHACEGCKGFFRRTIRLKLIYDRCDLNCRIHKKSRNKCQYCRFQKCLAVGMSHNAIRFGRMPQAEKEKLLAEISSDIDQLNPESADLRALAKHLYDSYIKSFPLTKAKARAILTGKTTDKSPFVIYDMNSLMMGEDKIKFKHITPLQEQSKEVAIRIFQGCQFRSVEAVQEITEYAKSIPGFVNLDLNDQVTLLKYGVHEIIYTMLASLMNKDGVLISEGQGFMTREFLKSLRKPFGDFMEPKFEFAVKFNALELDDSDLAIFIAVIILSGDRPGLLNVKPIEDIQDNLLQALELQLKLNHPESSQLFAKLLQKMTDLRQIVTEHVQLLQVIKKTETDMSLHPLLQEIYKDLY
Kind of data set: Transfection assay (luciferase reporter, full-length PPAR plasmid) in CV-1 cells, PPARγ selectivity. Format: cell-based. Conditions: 24 hours. As for the experimental part: as §1

The subject of data set [9] is C57BL/6 mouse. Kind of data set: Muscle endurance and muscle function in adult exercising mice (treadmill). Type of data set: in vivo. As to conditions: 10-week-old C57BL/6 mouse, 10 mg/kg oral, treadmill exercise 30 days. Here is the method:
Further, improvement of muscle endurance and muscle function was confirmed when the compound according to the present invention was administered to an adult. 10-week-old C57BL/6 mouse was let to exercise while orally administering Compound S185 or S186 (10 mg/kg). The mouse was let to exercise on a treadmill for 30 days, once a day for 30 minutes. Exercise condition was 5 minutes at 2 m/min, 5 minutes at 5 m/min, 5 minutes at 8 m/min, followed by 5 minutes at 20 m/min. At the end of the test, muscle endurance strengthening and muscle function improving effect was tested using a treadmill.

Data set [10] can be described thus: Obesity inhibiting effect, high-fat feed mice. Format: in vivo, mouse. Conditions: C57BL/6 mice, 35% fat feed 60 days, 10 mg/kg/day oral. As for the experimental part:
In order to test in vivo effect of the compound according to the present invention, experiment was carried out using mouse. 8-week-old C57BL/6 (SLC Co.) mice were used and feed containing 35% fat was used to induce obesity. While giving the high-fat feed for 60days, vehicle, Compound S185 or Compound S186 was orally administered (10 mg/kg/day).

Data set [11] has as its system C57BL/6 mouse. Kind of data set: Fatty liver treating effect, high-fat feed mice (H&E liver staining). Format: in vivo. Conditions: 35% fat feed 78 days, 10 mg/kg/day oral. Here is the method: Animal (8-week-old C57BL/6 mouse) experiment was carried out in order to test fatty liver treating effect of the compound according to the present invention. Feed containing 35% fat was used to induce fatty liver. While giving the high-fat feed for 78 days, Compound S185 was orally administered (10 mg/kg/day). At the end of the experiment, liver tissue was harvested and fixed in paraformaldehyde solution and then stained with hematoxylin and eosin.

Setting [12] is: administered during Pregnancy + lactation.

A word on the EC50: it is the concentration that produces a half-maximal response. A lower EC50 goes with greater potency. For the compound `Cc1cc(SCc2[se]c(-c3ccc(C(F)(F)F)cc3)nc2C)ccc1OCC(=O)O` [Compound S185], a half-maximal response in [1] (EC50) required 0.66 nM. Besides, the “Atherosclerosis inhibiting effect improved as compared to the control group” value in data set [2] is 60%. Besides, the “EC50 hPPARα” value in data set [3] is given as “ia”. Moreover, in [4], the “Fasting glucose level as compared to the control group” value is “lower fasting glucose level” and the Diabetes improving effect entry is “effective in improving diabetes”. Also, in [5], the “Body weight or growth rate of the fetus, treated versus control group” value is listed as “No difference”; the “Type I muscle fiber (ATPase staining and immunostaining)” value was “increased type I muscle fiber”. In data set [5] (administered during Lactation), the “Increase compared to control, Distance” value is 2.6 times and the “Increase compared to control, Time” value is given as 2.1 times. For the same compound, in data set [5] (setting [12]), the “Increase compared to control, Distance” value is reported as 3.9 times and the “Increase compared to control, Time” value is reported as 3.7 times. Further, in [5] (administered during Pregnancy), the “Increase compared to control, Distance” value was determined as 2.7 times and the “Increase compared to control, Time” value stood at 2.3 times. Also, the “Atherosclerosis inhibiting effect improved” value in [6] stood at 36%. In addition, the “Water maze test result” value in [7] (Exercise (o)) worked out at 14 s. The “Water maze test result” value in data set [7] (Exercise (x)) is 20 s. In data set [8], the “EC50 hPPARγ” value is recorded as “ia”. For the same compound, the “Exercise time and distance as compared to the control group” value in [9] is “improvement both in exercise time and distance”. Besides, the “Body weight increase as compared to the vehicle group” value in data set [10] is 39%. For the same compound, in data set [11], the “Fatty liver treating effect (H&E stained liver tissue, FIG. 1)” value is “effective in preventing fatty liver”.

The compound `Cc1cc([Se]Cc2[se]c(-c3ccc(C(F)(F)F)cc3)nc2C)ccc1OCC(=O)O` [Compound S186] showed an EC50 in [1] of 4.27 nM. Further, the “EC50 hPPARα” value in data set [3] is reported as “ia”. Further, the “Fasting glucose level as compared to the control group” value in data set [4] is “lower fasting glucose level”. Moreover, the Diabetes improving effect result in data set [4] is listed as “effective in improving diabetes”. Also, the “Body weight or growth rate of the fetus, treated versus control group” value in data set [5] is “No difference”. Also, in [5], the “Type I muscle fiber (ATPase staining and immunostaining)” value was “increased type I muscle fiber”. Further, the “Increase compared to control, Distance” value in data set [5] (administered during Lactation) came out at 2.0 times; in data set [5] (setting [12]), 3.3 times; in data set [5] (administered during Pregnancy), 2.1 times. For the same compound, the “Increase compared to control, Time” value in data set [5] (administered during Lactation) is recorded as 1.8 times; in data set [5] (setting [12]), 3.1 times; in [5] (administered during Pregnancy), 2.1 times. Also, the “Water maze test result” value in data set [7] (Exercise (o)) was found to be 16 s; in [7] (Exercise (x)), 27 s. In data set [8], the “EC50 hPPARγ” value is on record as “ia”. The “Exercise time and distance as compared to the control group” value in [9] was “improvement both in exercise time and distance”. For the same compound, in [10], the “Body weight increase as compared to the vehicle group” value was determined as 42%.
